Measurements reported in patent US12116698B1, “Protein surface recognition via chemically enhanced phage display” (The Trustees of Boston College, priority 2019, dated 2024).
“Also recorded” adds a separate entry of the source. Where a SMILES comes first, the peptide text is derived from it. Where no end group is shown, it is not given here. [ ]: non-standard residue; d: D form. The star is where a group is joined. APBA = (2-acetyl-5-(3-(2-iodoacetamido)propoxy)phenyl)boronic acid, Cys modified with it (Cm in name), CC(=O)c1ccc(OCCCNC(=O)C*)cc1B(O)O; X1 = CC(=O)c1ccc(OCCCNC(=O)C*)cc1B(O)O; Dap = NC[C@H](N)C(=O)O; Cam = NC(=O)C*

Tests used:
streptavidin = streptavidin (Streptomyces avidinii, UniProt P22629); format: binding; conditions: for fluorescence brightness of streptavidin beads on addition of BSA: BSA 1 mg/mL; for fluorescence staining of streptavidin beads after surface lysine acetylation: beads treated with Ac-NHS, 3 mM; for fluorescence staining of streptavidin-coated beads: excess biotin present; for effect of biotin on fluorescence staining of streptavidin-coated beads: with and without biotin; for staining of streptavidin-coated beads by SrtA screen peptides: even at 25 μm; for staining of streptavidin beads without SrtA coating: streptavidin beads alone, no SrtA
sortase A (SrtA) [1] = target: T1, sortase A (SrtA) (Staphylococcus aureus, UniProt Q2FV99); format: binding, S. aureus; conditions: for fluorescence staining of SrtA-coated beads: peptide at 25 μM; for staining of SrtA-coated beads in the presence of BSA: 10 mg/mL BSA
sortase A (SrtA) [2] = target: T1, sortase A (SrtA); conditions: competition with DMMA
Excerpt: To probe the peptides' binding site on SrtA, a competition experiment was designed using a known small molecule inhibitor of SrtA, DMMA (FIG. 8E).

T1 sequence (Q2FV99 whole entry): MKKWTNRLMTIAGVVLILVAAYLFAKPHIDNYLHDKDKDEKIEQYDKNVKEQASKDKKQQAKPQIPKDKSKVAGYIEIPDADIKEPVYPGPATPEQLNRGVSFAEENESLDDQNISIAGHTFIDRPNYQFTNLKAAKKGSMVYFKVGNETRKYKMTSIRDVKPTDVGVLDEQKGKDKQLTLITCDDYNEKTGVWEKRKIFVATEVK
Sequence of streptavidin (P22629 37-163 limits assumed): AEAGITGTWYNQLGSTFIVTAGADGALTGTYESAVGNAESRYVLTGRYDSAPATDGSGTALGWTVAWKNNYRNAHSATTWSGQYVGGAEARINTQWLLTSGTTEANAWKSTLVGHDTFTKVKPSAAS

| Molecule | fluorescence brightness of streptavidin beads on addition of BSA (streptavidin) | fluorescence staining of streptavidin beads after surface lysine acetylation (streptavidin) | fluorescence staining of streptavidin-coated beads (streptavidin) | effect of biotin on fluorescence staining of streptavidin-coated beads (streptavidin) | staining of streptavidin-coated beads by SrtA screen peptides (streptavidin) | staining of streptavidin beads without SrtA coating (streptavidin) | fluorescence staining of SrtA-coated beads (sortase A (SrtA) [1]) | staining of SrtA-coated beads in the presence of BSA (sortase A (SrtA) [1]) | effect of DMMA addition on SrtA binding (sortase A (SrtA) [2]) |
| --- | --- | --- | --- | --- | --- | --- | --- | --- | --- |
| CC(=O)c1ccc(OCCCNC(=O)CSC[C@H](NC(=O)[C@H](C)N)C(=O)N[C@H](C(=O)N2CCC[C@H]2C(=O)N[C@@H](CCCNC(=N)N)C(=O)N[C@@H](CO)C(=O)N[C@@H](C)C(=O)N[C@@H](CC(N)=O)C(=O)N[C@@H](Cc2ccc(O)cc2)C(=O)N[C@@H](CSCC(=O)NCCCOc2ccc(C(C)=O)c(B(O)O)c2)C(=O)NCC(=O)NCC(=O)NCC(=O)N[C@@H](CN)C(N)=O)[C@@H](C)O)cc1B(O)O [SA1, ACmTPRSANYCmGGGDap] (H-AC(X1)TPRSANYC(X1)GGG[Dap]-NH2; N-terminus and C-terminus assumed) | minimally affected | completely abolished the fluorescence staining | fluorescence staining of the beads at low micromolar concentrations | marginal differences in fluorescence intensity with and without biotin | – | – | – | – | – |
| ACmIQKNTTTCmGGGDap (AC(APBA)IQKNTTTC(APBA)GGG[Dap]; not fully specified (residue 14); also: APBA dimer modification, fluorescent label on Dap14) [W3] | – | – | – | – | fail to stain streptavidin-coated beads | no fluorescence staining of the streptavidin beads alone | weak fluorescence staining of SrtA-coated beads; also recorded: much lower fluorescence staining of the beads | – | – |
| ACmTPNKTPKCmGGGDap (AC(APBA)TPNKTPKC(APBA)GGG[Dap]; not fully specified (residue 14); also: APBA dimer modification, fluorescent label on Dap14) [W4] | – | – | – | – | fail to stain streptavidin-coated beads | no fluorescence staining of the streptavidin beads alone | weak fluorescence staining of SrtA-coated beads; also recorded: much lower fluorescence staining of the beads | – | – |
| CC(=O)c1ccc(OCCCNC(=O)CSC[C@H](NC(=O)[C@H](C)N)C(=O)N[C@@H](Cc2c[nH]cn2)C(=O)N2CCC[C@H]2C(=O)N[C@H](C(=O)N[C@@H](CO)C(=O)NCC(=O)N[C@@H](CCC(N)=O)C(=O)N[C@@H](CCCCN)C(=O)N[C@@H](CSCC(=O)NCCCOc2ccc(C(C)=O)c(B(O)O)c2)C(=O)NCC(=O)NCC(=O)NCC(=O)N[C@@H](CN)C(N)=O)C(C)C)cc1B(O)O [W1, ACmHPVSGQKCmGGGDap] (H-AC(X1)HPVSGQKC(X1)GGG[Dap]-NH2) | – | – | – | – | fail to stain streptavidin-coated beads | little binding to the agarose beads | strong fluorescence staining of the SrtA-coated beads | greater inhibition was observed | no inhibition of the SrtA binding |
| AcmTPRSANYCmGGGDap (AC(Cam)TPRSANYC(APBA)GGG[Dap]; not fully specified (residue 14); also: fluorescent label on Dap, identity not given here) [SA1-IA, reference compound] | – | – | failed to stain the streptavidin beads | – | – | – | – | – | – |
| CC(=O)c1ccc(OCCCNC(=O)CSC[C@H](NC(=O)[C@H](C)N)C(=O)N[C@@H](CC(=O)O)C(=O)NCC(=O)N[C@@H](CCCNC(=N)N)C(=O)N2CCC[C@H]2C(=O)N[C@@H](CC(=O)O)C(=O)N[C@@H](CCCNC(=N)N)C(=O)N[C@@H](C)C(=O)N[C@@H](CSCC(=O)NCCCOc2ccc(C(C)=O)c(B(O)O)c2)C(=O)NCC(=O)NCC(=O)NCC(=O)N[C@@H](CN)C(N)=O)cc1B(O)O [SA2, ACmDGRPDRACmGGGDap] (H-AC(X1)DGRPDRAC(X1)GGG[Dap]-NH2; N-terminus and C-terminus assumed) | minimally affected | greatly reduced the fluorescence staining | fluorescence staining of the beads at low micromolar concentrations | marginal differences in fluorescence intensity with and without biotin | – | – | – | – | – |
| CC(=O)c1ccc(OCCCNC(=O)CSC[C@H](NC(=O)[C@H](C)N)C(=O)N[C@@H](CC(C)C)C(=O)N[C@@H](CC(N)=O)C(=O)N[C@@H](CO)C(=O)N[C@@H](CO)C(=O)N[C@@H](CCC(N)=O)C(=O)N2CCC[C@H]2C(=O)N[C@@H](CO)C(=O)N[C@@H](CSCC(=O)NCCCOc2ccc(C(C)=O)c(B(O)O)c2)C(=O)NCC(=O)NCC(=O)NCC(=O)N[C@@H](CN)C(N)=O)cc1B(O)O [W2, ACmLNSSQPSCmGGGDap] (H-AC(X1)LNSSQPSC(X1)GGG[Dap]-NH2; N-terminus and C-terminus assumed) | – | – | – | – | fail to stain streptavidin-coated beads | little binding to the agarose beads | strong fluorescence staining of the SrtA-coated beads | effective binding; also recorded: stain the SrtA coated beads | binds the SrtA surface instead of the catalytic site; also recorded: no inhibition of the SrtA binding |
| AcmDGRPDRACmGGGDap (AC(Cam)DGRPDRAC(APBA)GGG[Dap]; not fully specified (residue 14); also: fluorescent label on Dap, identity not given here) [SA2-IA, reference compound] | – | – | failed to stain the streptavidin beads | – | – | – | – | – | – |
